In BigSolDB 2.1:

Oc1ccc(Cl)cc1C=Nc1ccccn1
solubility (mole fraction)
Conditions | 268.15 K | 273.15 K | 278.15 K | 283.15 K | 288.15 K | 293.15 K | 298.15 K | 303.15 K
in THF | 0.0285 | 0.0323 | 0.0362 | 0.0406 | 0.0466 | 0.0545 | 0.0649 | 0.0735
in dichloromethane | 0.00836 | 0.0124 | 0.0166 | 0.0193 | 0.0247 | 0.0306 | 0.0355 | 0.0429
in diethyl ether | 0.00329 | 0.00427 | 0.00513 | 0.00605 | 0.00728 | 0.00844 | 0.0105 | 0.0121
in toluene | 0.0103 | 0.0111 | 0.0136 | 0.017 | 0.0192 | 0.0228 | 0.0277 | 0.0339

Oc1ccccc1/C=N/c1ccccn1
solubility (mole fraction)
Conditions | 268.15 K | 273.15 K | 278.15 K | 283.15 K | 288.15 K | 293.15 K | 298.15 K
in diethyl ether | 0.0581 | 0.0673 | 0.0873 | 0.107 | 0.14 | 0.17 | 0.231
in ethanol | 0.0099 | 0.0121 | 0.0152 | 0.0199 | 0.0266 | 0.035 | 0.0489
in methanol | 0.00796 | 0.0107 | 0.0146 | 0.0187 | 0.0255 | 0.0346 | 0.0503
in toluene | 0.135 | 0.174 | 0.215 | 0.26 | 0.316 | 0.361 | 0.423
